Data reported in US20260199323A1, “LIGAND COMPOUNDS FOR E3 UBIQUITIN LIGASE, PROTEIN DEGRADERS DEVELOPED ON BASIS OF LIGAND COMPOUNDS, AND USES THEREOF” (GLUETACS THERAPEUTICS (SHANGHAI) CO., LTD., priority 2021, published 2026).
Read-outs that look alike come from different tables or passages of the source.

Columns and labels:
MM.1R = assay: CCK-8 tumor cell proliferation, MM.1R; assay type: cell-based
Method: (§1) The tumor cells used herein were cultured in a cell culture medium listed in table 4 at 37° C. in an incubator with 5% CO2. Prior to experimentation, all cells used were correctly identified by STR profiling, and tested negative for mycoplasma through routine screenings.
(§2) IC50 values of the compounds of the present disclosure (including the compounds in Tables 1 and 3, and compounds of examples) were measured using the Meilun Cell Counting Kit-8 kit from Dalian Meilun Biotech Co., Ltd. Assay details are as follows: tumor cells were seeded in a 96-well plate at a density listed in Table 5. After 24 h, 100 μL of the inoculated cells were treated with 0.5 μL of the compounds of the present disclosure (including the compounds in Tables 1 and 3, and compounds of examples) at 10 different successively decreasing concentrations (starting at the highest concentration of 10 μM; 5-fold serial dilutions). After the cells were treated with the compounds of the present disclosure for a period of time, the cell viability detection reagent was added to the culture medium for cell viability assessment according to the instructions provided with the CCK-8 kit. […] The growth inhibition of the compounds of the present disclosure on cells was plotted by Prism Graphpad software, and the IC50 values of the compounds of the present disclosure were calculated therefrom.

Jurkat = assay: CCK-8 tumor cell proliferation, Jurkat; assay type: cell-based, Human; conditions: Homo sapiens
Method: as §1, §2

CAL-62 = assay: CCK-8 tumor cell proliferation, CAL-62; assay type: cell-based, Human; conditions: Homo sapiens, CAL-62
Method: as §1, §2

CCRF-CEM = assay: CCK-8 tumor cell proliferation, CCRF-CEM; assay type: cell-based, Human; parameters: IC50 for inhibiting the proliferation of tumor cells, CCRF-CEM: scale not given here; conditions: for IC50: Homo sapiens, Table 18, FAK inhibitor based, CCRF-CEM, read-out: IC50 inhibiting proliferation of tumor cells, CCRF-CEM; for IC50 for inhibiting the proliferation of tumor cells, CCRF-CEM: 96 h
Method: as §1, §2

MDA-MB-231 = assay: CCK-8 tumor cell proliferation, MDA-MB-231; assay type: cell-based, Human; conditions: Homo sapiens; Table 18, FAK inhibitor based; MDA-MB-231; read-out: IC50 inhibiting proliferation of tumor cells, MDA-MB-231
Method: as §1, §2

MM.1S = assay: CCK-8 tumor cell proliferation, MM.1S; assay type: cell-based; conditions: for IC50: Homo sapiens, MM1.S, Table 18, FAK inhibitor based, MM.1S, read-out: IC50 inhibiting proliferation of tumor cells, MM.1S; for IC50 for inhibiting the proliferation of tumor cells, MM.1S: 72 h
Method: as §1, §2

Mino = assay: CCK-8 tumor cell proliferation, Mino; assay type: cell-based, Human; conditions: for IC50: Homo sapiens, Table 18, FAK inhibitor based, Mino, read-out: IC50 inhibiting proliferation of tumor cells, Mino; for IC50 for inhibiting the proliferation of tumor cells, Mino: 72 h
Method: as §1, §2

SW620 = assay: CCK-8 tumor cell proliferation, SW620; assay type: cell-based, Human; conditions: Homo sapiens, SW-620; Table 18, FAK inhibitor based; SW620; read-out: IC50 inhibiting proliferation of tumor cells, SW620
Method: as §1, §2

PC-9 = assay: CCK-8 tumor cell proliferation, PC-9; assay type: cell-based, Human; conditions: Homo sapiens; Table 18, FAK inhibitor based; PC-9; read-out: IC50 inhibiting proliferation of tumor cells, PC-9
Method: The tumor cells used herein were cultured in a cell culture medium listed in table 4 at 37° C. in an incubator with 5% CO2.
as §2, with “After” for “IC50 values of the compounds of the present disclosure (including the compounds in Tables 1 and 3, and compounds of examples) were measured using the Meilun Cell Counting Kit-8 kit from Dalian Meilun Biotech Co., Ltd. Assay details are as follows: tumor cells were seeded in a 96-well plate at a density listed in Table 5. After”

SR = assay: CCK-8 tumor cell proliferation, SR; assay type: cell-based, Human; conditions: Table 12, designed based on CDK9 inhibitors; 72 h
Method: as §1, §2

Kasumi-1 = assay: CCK-8 tumor cell proliferation, Kasumi-1; assay type: cell-based, Human; conditions: 72 h
Method: as §1, §2

[1] = Table 23, compared to Comparative Example compounds, read-out: Inhibitory activity (IC50, nM) against tumor cell proliferation, MM.1R
[2] = Table 23, compared to Comparative Example compounds, read-out: Inhibitory activity (IC50, nM) against tumor cell proliferation, Jurkat
[3] = Table 23, compared to Comparative Example compounds, read-out: Inhibitory activity (IC50, nM) against tumor cell proliferation, CAL-62
[4] = Table 18, FAK inhibitor based, read-out: IC50 inhibiting proliferation of tumor cells, CAL-62
[5] = Table 16, designed based on BET inhibitors
[6] = Table 8, designed based on ER inhibitors
[7] = Table 7, designed based on BTK inhibitors

Q: How did the IC50 (MM.1R; [1]) turn out when `Nc1ncnc2c1c(-c1ccc(Oc3ccccc3)cc1)nn2C1CCN(CCc2ccc3c(c2)CN(C2CCC(=O)NC2=O)C3=O)CC1` (stereo not shown) [GT-04563, 3-(5-(2-(4-(4-amino-3-(4-phenoxyphenyl)-1H-pyrazolo[3,4-d]pyrimidin-1-yl)piperidin-1-yl)ethyl)-1-oxoisoindolin-2-yl)piperidine-2,6-dione] was run?
A: < 50 nM

Q: And the IC50 (Jurkat; [2])?
A: 1000 to 5000 nM

Q: What about the IC50 (CAL-62; [3]) of the same molecule?
A: 5000 to 10000 nM

Q: Which results are given for `CCc1cc2c(cc1N1CCC(N3CCN(CCc4ccc5c(c4)CN(C4CCC(=O)NC4=O)C5=O)CC3)CC1)C(C)(C)c1[nH]c3cc(C#N)ccc3c1C2=O` (stereo not shown) [GT-04512, 8-(4-(4-(2-(2-(2,6-dioxopiperidin-3-yl)-1-oxoisoindolin-5-yl)ethyl)piperazin-1-yl)piperidin-1-yl)-9-ethyl-6,6-dimethyl-11-oxo-6,11-dihydro-5H-benzo[b]carbazole-3-carbonitrile]?
A: IC50 (MM.1R; [1]): 1000 to 5000 nM; IC50 (Jurkat; [2]): 100 to 500 nM; IC50 (CAL-62; [3]): 1000 to 5000 nM

Q: How did the IC50 (MM.1R; [1]) turn out when `COc1cc(N2CCC(N(C)CCc3ccc4c(c3)CN(C3CCC(=O)NC3=O)C4=O)CC2)ccc1Nc1ncc(Cl)c(Nc2ccccc2P(C)(C)=O)n1` (stereo not shown) [GT-04513, 3-(5-(2-((1-(4-((5-chloro-4-((2-(dimethylphosphoryl)phenyl)amino)pyrimidin-2-yl)amino)-3-methoxyphenyl)piperidin-4-yl)(methyl)amino)ethyl)-1-oxoisoindolin-2-yl)piperidine-2,6-dione] was run?
A: 100 to 500 nM

Q: What about the IC50 (Jurkat; [2]) of the same molecule?
A: 1000 to 5000 nM

Q: And the IC50 (CAL-62; [3])?
A: 1000 to 5000 nM

Q: Which results are given for `CS(=O)(=O)c1cccc(CNc2nc(Nc3ccc(N4CCN(Cc5ccc6c(c5)CN(C5CCC(=O)NC5=O)C6=O)CC4)cc3)ncc2C(F)(F)F)c1` (stereo not shown) [GT-03792, 3-(5-((4-(4-((4-((3-(methylsulfonyl)benzyl)amino)-5-(trifluoromethyl)pyrimidin-2-yl)amino)phenyl)piperazin-1-yl)methyl)-1-oxoisoindolin-2-yl)piperidine-2,6-dione]?
A: IC50 (CCRF-CEM): < 50 nM; IC50 (MDA-MB-231): < 50 nM; IC50 (MM.1S): < 50 nM; IC50 (Mino): 100 to 500 nM; IC50 (SW620): < 50 nM; IC50 (PC-9): 1000 to 5000 nM; IC50 (CAL-62; [4]): < 50 nM

Q: Which results are given for `CN(c1cccc(CNc2nc(Nc3ccc(C4CCN(Cc5ccc6c(c5)CN(C5CCC(=O)NC5=O)C6=O)CC4)cc3)ncc2C(F)(F)F)c1)S(C)(=O)=O` (stereo not shown) [GT-03742, N-(3-(((2-((4-(1-((2-(2,6-dioxopiperidin-3-yl)-1-oxoisoindolin-5-yl)methyl)piperidin-4-yl)phenyl)amino)-5-(trifluoromethyl)pyrimidin-4-yl)amino)methyl)phenyl)-N-methylmethanesulfonamide]?
A: IC50 (MDA-MB-231): 1000 to 5000 nM; IC50 (MM.1S): 1000 to 5000 nM; IC50 (CAL-62; [4]): 1000 to 5000 nM

Q: What does the source list for `CC(C)(C)c1cnc(CSc2cnc(NC(=O)C3CCN(Cc4ccc5c(c4)CN(C4CCC(=O)NC4=O)C5=O)CC3)s2)o1` (stereo not shown) [GT-03242, N-(5-(((5-(tert-butyl)oxazol-2-yl)methyl)thio)thiazol-2-yl)-1-((2-(2,6-dioxopiperidin-3-yl)-1-oxoisoindolin-5-yl)methyl)piperidine-4-carboxamide]?
A: IC50 for inhibiting the proliferation of tumor cells, MM.1S (MM.1S; Table 12, designed based on CDK9 inhibitors): A+; IC50 for inhibiting the proliferation of tumor cells, SR (SR): A+

Q: For `CNC(=O)c1ccccc1Nc1cc(Nc2ccc(N3CCC(N(C)Cc4ccc5c(c4)CN(C4CCC(=O)NC4=O)C5=O)CC3)cc2OC)ncc1C(F)(F)F` (stereo not shown) [GT-03679, 2-((2-((4-(4-(((2-(2,6-dioxopiperidin-3-yl)-1-oxoisoindolin-5-yl)methyl)(methyl)amino)piperidin-1-yl)-2-methoxyphenyl)amino)-5-(trifluoromethyl)pyridin-4-yl)amino)-N-methylbenzamide], which IC50 (CCRF-CEM) is on record?
A: 500 to 1000 nM

Q: What about the IC50 (MDA-MB-231) of the same molecule?
A: < 50 nM

Q: And the IC50 (MM.1S)?
A: 100 to 500 nM

Q: What about the IC50 (SW620) of the same molecule?
A: 100 to 500 nM

Q: And the IC50 (CAL-62; [4])?
A: 50 to 100 nM

Q: For `CC(C)(O)c1cc2nc(C3CCN(Cc4ccc5c(c4F)CN(C4CCC(=O)NC4=O)C5=O)CC3)oc2cc1NC(=O)c1cccc(C(F)(F)F)n1` (stereo not shown) [GT-04518, N-(2-(1-((2-(2,6-dioxopiperidin-3-yl)-4-fluoro-1-oxoisoindolin-5-yl)methyl)piperidin-4-yl)-5-(2-hydroxypropan-2-yl)benzo[d]oxazol-6-yl)-6-(trifluoromethyl)picolinamide], which IC50 (MM.1R; Table 19, IRAK4 inhibitor based, read-out: IC50 inhibiting proliferation of tumor cells, MM.1R) is on record?
A: 50 to 100 nM

Q: What about the IC50 (Jurkat; Table 19, IRAK4 inhibitor based, read-out: IC50 inhibiting proliferation of tumor cells, Jurkat) of the same molecule?
A: < 50 nM

Q: What about the IC50 (CAL-62; Table 19, IRAK4 inhibitor based, read-out: IC50 inhibiting proliferation of tumor cells, CAL-62) of the same molecule?
A: 100 to 500 nM

Q: With `Cc1sc2c(c1C)C(c1ccc(Cl)cc1)=N[C@@H](CC(=O)N1CCN(Cc3ccc4c(c3)CN(C3CCC(=O)NC3=O)C4=O)CC1)c1nnc(C)n1-2` (stereo partly drawn) [GT-02967, 3-(5-((4-(2-((S)-4-(4-chlorophenyl)-2,3,9-trimethyl-6H-thieno[3,2-f][1,2,4]triazolo[4,3-a][1,4]diazepin-6-yl)acetyl)piperazin-1-yl)methyl)-1-oxoisoindolin-2-yl)piperidine-2,6-dione] as the molecule, how does the “IC50 for inhibiting the proliferation of tumor cells, CCRF-CEM” value (CCRF-CEM; [5]) read?
A: A+

Q: What about the “IC50 for inhibiting the proliferation of tumor cells, Kasumi-1” value (Kasumi-1; [5]) of the same molecule?
A: A+

Q: For `CS(=O)(=O)c1cccc(CNc2nc(Nc3ccc(N4CCN(Cc5ccc6c(c5F)CN(C5CCC(=O)NC5=O)C6=O)CC4)cc3)ncc2C(F)(F)F)c1` (stereo not shown) [GT-03817, 3-(4-fluoro-5-((4-(4-((4-((3-(methylsulfonyl)benzyl)amino)-5-(trifluoromethyl)pyrimidin-2-yl)amino)phenyl)piperazin-1-yl)methyl)-1-oxoisoindolin-2-yl)piperidine-2,6-dione], which IC50 (CCRF-CEM) is on record?
A: < 50 nM

Q: And the IC50 (MDA-MB-231)?
A: < 50 nM

Q: What about the IC50 (MM.1S) of the same molecule?
A: < 50 nM

Q: And the IC50 (Mino)?
A: 50 to 100 nM

Q: And the IC50 (SW620)?
A: < 50 nM

Q: And the IC50 (CAL-62; [4])?
A: < 50 nM

Q: What does the source list for `O=C1CCC(N2Cc3cc(CN4CCN(c5ccc(C(=C(CCCl)c6ccccc6)c6ccccc6)cc5)CC4)ccc3C2=O)C(=O)N1` (stereo not shown) [GT-03637, 3-(5-((4-(4-(4-chloro-1,2-diphenylbut-1-en-1-yl)phenyl)piperazin-1-yl)methyl)-1-oxoisoindolin-2-yl)piperidine-2,6-dione]?
A: IC50 for inhibiting the proliferation of tumor cells, CCRF-CEM (CCRF-CEM; [6]): A+; IC50 for inhibiting the proliferation of tumor cells, Kasumi-1 (Kasumi-1; [6]): A+; IC50 for inhibiting the proliferation of tumor cells, Mino (Mino; [6]): A+

Q: Which results are given for `CS(=O)(=O)c1cccc(CNc2nc(Nc3ccc(N4CCN(Cc5cc6c(cc5F)C(=O)N(C5CCC(=O)NC5=O)C6)CC4)cc3)ncc2C(F)(F)F)c1` (stereo not shown) [GT-03818, 3-(6-fluoro-5-((4-(4-((4-((3-(methylsulfonyl)benzyl)amino)-5-(trifluoromethyl)pyrimidin-2-yl)amino)phenyl)piperazin-1-yl)methyl)-1-oxoisoindolin-2-yl)piperidine-2,6-dione]?
A: IC50 (CCRF-CEM): < 50 nM; IC50 (MDA-MB-231): < 50 nM; IC50 (MM.1S): < 50 nM; IC50 (Mino): < 50 nM; IC50 (SW620): < 50 nM; IC50 (CAL-62; [4]): < 50 nM

Q: What does the source list for `NC(=O)c1ccc(C2CCN(Cc3ccc4c(c3)CN(C3CCC(=O)NC3=O)C4=O)CC2)nc1-c1ccc(Oc2ccccc2)cc1` (stereo not shown) [GT-03693, 6-(1-((2-(2,6-dioxopiperidin-3-yl)-1-oxoisoindolin-5-yl)methyl)piperidin-4-yl)-2-(4-phenoxyphenyl)nicotinamide]?
A: IC50 for inhibiting the proliferation of tumor cells, CCRF-CEM (CCRF-CEM; [7]): A+; IC50 for inhibiting the proliferation of tumor cells, MM.1S (MM.1S; [7]): A+; IC50 for inhibiting the proliferation of tumor cells, Mino (Mino; [7]): A+
